Results from PMC9329436, “Optimization of the 4-anilinoquin(az)oline scaffold as epidermal growth factor receptor (EGFR) inhibitors for chordoma utilizing a toxicology profiling assay platform” (Scientific Reports, 2022).

The compounds below were run on WS1 human fibroblast cell line (assay: Cell viability assay, WS1 toxicity control). Settings: n = 4, nonspecific toxicity control.
Assay type: cell-based
Procedure: (§1) Cells were seeded in 384 well plates and were treated with test compound in quadruplicate 24 h after plating. Cell viability was assessed at 72 h using alamarBlue (ThermoFisher, USA). […] IC50 values were determined by four-parameter nonlinear regression analyses using GraphPad Prism™ version 8 software (San Diego, CA).

| Structure (SMILES) | IC50 [µM] |
| --- | --- |
| C#Cc1cccc(Nc2ncnc3cc4c(cc23)OCCO4)c1 [Compound 21] | > 100 |
| C#Cc1cccc(Nc2c(C#N)cnc3cc(I)ccc23)c1 [Compound 32] | > 100 |
| C#Cc1ccc(F)c(Nc2ncnc3ccc(I)cc23)c1 [Compound 34] | > 100 |
| C#Cc1cccc(Nc2ccnc3ccc(I)cc23)c1F [Compound 35] | 85 |
| C#Cc1cc(Nc2ncnc3ccc(I)cc23)ccc1F [Compound 36] | > 100 |

What follows are compounds tested against EGFR (Homo sapiens, UniProt P00533) (assay: ProQinase in-cell EGFR assay (EGFR phosphorylation in A431 cells)). Settings: ProQinase in-cell EGFR assay, A431 cells, n = 1.
EGFR, sequence (P00533 25-1210): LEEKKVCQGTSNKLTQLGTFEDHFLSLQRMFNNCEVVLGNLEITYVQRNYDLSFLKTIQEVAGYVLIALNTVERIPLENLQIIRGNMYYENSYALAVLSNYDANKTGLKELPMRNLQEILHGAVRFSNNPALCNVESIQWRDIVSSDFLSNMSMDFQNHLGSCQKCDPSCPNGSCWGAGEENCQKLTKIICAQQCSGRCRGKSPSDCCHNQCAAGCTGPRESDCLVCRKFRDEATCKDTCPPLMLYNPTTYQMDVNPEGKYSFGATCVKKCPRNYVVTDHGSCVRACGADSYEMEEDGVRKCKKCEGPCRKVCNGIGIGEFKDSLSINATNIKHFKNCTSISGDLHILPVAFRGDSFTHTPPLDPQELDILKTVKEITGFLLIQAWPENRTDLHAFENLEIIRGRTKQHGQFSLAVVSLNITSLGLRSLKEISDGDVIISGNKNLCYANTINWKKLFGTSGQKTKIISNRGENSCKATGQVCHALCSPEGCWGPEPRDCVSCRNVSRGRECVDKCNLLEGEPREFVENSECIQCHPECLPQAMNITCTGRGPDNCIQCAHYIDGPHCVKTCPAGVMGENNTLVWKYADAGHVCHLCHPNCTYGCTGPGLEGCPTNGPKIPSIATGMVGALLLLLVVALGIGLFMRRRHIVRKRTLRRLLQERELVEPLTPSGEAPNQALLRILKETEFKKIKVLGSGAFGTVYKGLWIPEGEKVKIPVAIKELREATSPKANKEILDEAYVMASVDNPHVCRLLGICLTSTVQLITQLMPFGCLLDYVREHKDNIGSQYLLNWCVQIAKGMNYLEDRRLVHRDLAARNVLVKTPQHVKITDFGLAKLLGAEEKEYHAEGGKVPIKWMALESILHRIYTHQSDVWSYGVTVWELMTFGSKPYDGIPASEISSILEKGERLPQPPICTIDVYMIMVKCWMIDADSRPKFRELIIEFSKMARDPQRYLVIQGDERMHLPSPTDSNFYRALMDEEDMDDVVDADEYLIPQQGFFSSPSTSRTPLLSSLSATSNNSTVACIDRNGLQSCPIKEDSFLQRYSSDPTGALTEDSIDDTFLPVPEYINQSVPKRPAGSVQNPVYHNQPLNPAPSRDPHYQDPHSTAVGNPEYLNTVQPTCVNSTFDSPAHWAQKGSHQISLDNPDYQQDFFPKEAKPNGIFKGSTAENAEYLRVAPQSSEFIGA
Assay type: cell-based
Design: This cell line endogenously expresses a high level of EGFR; endogenous in cells; host or cells: A431
Text: In addition, we ran an EGFR in-cell target engagement assay, measuring in-cell EGFR phosphorylation, using the human epidermoid carcinoma cell line A431. This cell line endogenously expresses a high level of EGFR, and stimulation of these cells with human epidermal growth factor (EGF) results in receptor tyrosine autophosphorylation.

| Structure (SMILES) | IC50 [µM] |
| --- | --- |
| C#Cc1cccc(Nc2c(C#N)cnc3cc(I)ccc23)c1 [Compound 32] | 2.7 |
| C#Cc1cc(Nc2ncnc3ccc(I)cc23)ccc1F [Compound 36] | 2.7 |

Now those with a lower IC50, led by results:

| IC50 [µM] | Structure (SMILES) |
| --- | --- |
| 1.9 | C#Cc1cccc(Nc2ncnc3cc4c(cc23)OCCO4)c1 [Compound 21] |
| 0.76 | C#Cc1ccc(F)c(Nc2ncnc3ccc(I)cc23)c1 [Compound 34] |
| 1.9 | C#Cc1cccc(Nc2ccnc3ccc(I)cc23)c1F [Compound 35] |

These compounds were tested on U-CH2 chordoma cell line (assay: Cell viability assay (alamarBlue, 72 h), U-CH2). Settings: n = 4, 72 h.
Assay type: cell-based, human
How it was run: (§2)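 Compound added in quadruplicate 24 h after plating; cultures maintained in 4:1 IMDM:RPMI, 10% FBS, gel-coated flasks.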

| Structure (SMILES) | IC50 [µM] |
| --- | --- |
| C#Cc1cccc(Nc2ncnc3cc4c(cc23)OCCO4)c1 [Compound 21] | > 100 |
| C#Cc1cccc(Nc2c(C#N)cnc3cc(I)ccc23)c1 [Compound 32] | > 100 |
| C#Cc1ccc(F)c(Nc2ncnc3ccc(I)cc23)c1 [Compound 34] | > 100 |
| C#Cc1cccc(Nc2ccnc3ccc(I)cc23)c1F [Compound 35] | > 100 |
| C#Cc1cc(Nc2ncnc3ccc(I)cc23)ccc1F [Compound 36] | > 100 |

What follows are compounds tested on U-CH12 patient-derived chordoma cell line (assay: Cell viability assay (alamarBlue, 72 h), U-CH12). Settings: n = 4, 72 h.
Assay type: cell-based, human
Procedure: (§3) Chordoma cell lines were cultured as described previously[10],[12],[33],[34]. Briefly, U-CH1 and U-CH2 cell lines were cultured in 4:1 IMDM:RPMI medium supplemented with 10% fetal bovine serum (FBS) and 1% penicillin/streptomycin in gel-coated flasks. […] CH22, UM-Chor1, U-CH12, and U-CH7 cell lines were cultured in RPMI medium supplemented with 10% FBS and 1% penicillin/streptomycin. The cell lines all undergo regular mycoplasma screening.
as §1

| Structure (SMILES) | IC50 [µM] |
| --- | --- |
| C#Cc1cccc(Nc2ncnc3cc4c(cc23)OCCO4)c1 [Compound 21] | > 100 |
| C#Cc1cccc(Nc2c(C#N)cnc3cc(I)ccc23)c1 [Compound 32] | > 100 |
| C#Cc1ccc(F)c(Nc2ncnc3ccc(I)cc23)c1 [Compound 34] | > 100 |
| C#Cc1cccc(Nc2ccnc3ccc(I)cc23)c1F [Compound 35] | > 100 |
| C#Cc1cc(Nc2ncnc3ccc(I)cc23)ccc1F [Compound 36] | > 100 |

Each compound was assayed on HL60 cells (assay: AsedaSciences SYSTEMETRIC Cell Health Screen (flow cytometry toxicity profiling)). Settings: HL60, 4 h, 5 nM–100 µM, probability 0–1, n = 2.
How it was run: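 Risk scores derive from a logistic-regression ML classifier comparing flow-cytometric stress phenotypes with those of 300 reference compounds of known high or low human risk. Phenotypes: light scatter plus fluorescent physiological dyes, twelve parameters, no gating. Compounds tested 5 nM–100 µM (3× steps, duplicate) on HL60 cells, 4 h, 37 °C.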

| Structure (SMILES) | CC: Cell Cycle score | CM: Cell morphology score | CMI: Cell membrane integrity score | GSH: Glutathione score | MMP: Mitochondrial membrane depolarization score | NMI1: Nuclear membrane integrity 1 score | NMI2: Nuclear membrane integrity 2 score | ROS: Reactive superoxide species score |
| --- | --- | --- | --- | --- | --- | --- | --- | --- |
| C#Cc1cccc(Nc2ncnc3cc4c(cc23)OCCO4)c1 [Compound 21] | 0.77 | 0.053 | 0.91 | 0.39 | 0.91 | 0.73 | 0.83 | 0.85 |
| C#Cc1cccc(Nc2c(C#N)cnc3cc(I)ccc23)c1 [Compound 32] | 0.95 | 1.00 | 1.00 | 0.98 | 0.99 | 0.95 | 0.94 | 0.99 |
| C#Cc1ccc(F)c(Nc2ncnc3ccc(I)cc23)c1 [Compound 34] | 0.25 | 0.025 | 0.014 | 0.044 | 0.030 | 0.17 | 0.078 | 0.074 |
| C#Cc1cccc(Nc2ccnc3ccc(I)cc23)c1F [Compound 35] | 0.12 | 0.0052 | 0.78 | 0.16 | 0.47 | 0.62 | 0.62 | 0.46 |
| C#Cc1cc(Nc2ncnc3ccc(I)cc23)ccc1F [Compound 36] | 0.038 | 0.011 | 0.31 | 0.068 | 0.13 | 0.24 | 0.048 | 0.35 |

Same assay, conditions: HL60, 4 h, 5 nM–100 µM, probability (0–1) of high-risk class, n = 2

| Structure (SMILES) | CHI: Cell Health Index |
| --- | --- |
| C#Cc1cccc(Nc2ncnc3cc4c(cc23)OCCO4)c1 [Compound 21] | 0.56 |
| C#Cc1cccc(Nc2c(C#N)cnc3cc(I)ccc23)c1 [Compound 32] | 0.81 |
| C#Cc1ccc(F)c(Nc2ncnc3ccc(I)cc23)c1 [Compound 34] | 0.18 |
| C#Cc1cccc(Nc2ccnc3ccc(I)cc23)c1F [Compound 35] | 0.37 |
| C#Cc1cc(Nc2ncnc3ccc(I)cc23)ccc1F [Compound 36] | 0.27 |

Same assay, conditions: SYSTEMETRIC Cell Health Screen; assay n=2

| Structure (SMILES) | Cell Health Toxcity Profile CC (DyeCycle Violet) | Cell Health Toxcity Profile CM (Cell morphology) | Cell Health Toxcity Profile CMI (Cell membrane integrity) | Cell Health Toxcity Profile GSH (Glutathione) | Cell Health Toxcity Profile MMP (Mitochondrial membrane depolarization) | Cell Health Toxcity Profile NMI1 (Nuclear membrane integrity 1) | Cell Health Toxcity Profile NMI2 (Nuclear membrane integrity 2) | Cell Health Toxcity Profile ROS (Reactive superoxide species) |
| --- | --- | --- | --- | --- | --- | --- | --- | --- |
| C#Cc1cccc(Nc2c(C#N)cnc3cc(I)ccc23)c1 [Compound 32] | 0.95 | 1.00 | 1.00 | 0.98 | 0.99 | 0.95 | 0.94 | 0.99 |

Same assay, conditions: SYSTEMETRIC Cell Health Screen; classifier output; assay n=2

| Structure (SMILES) | Cell Health Toxcity Profile CHI |
| --- | --- |
| C#Cc1cccc(Nc2c(C#N)cnc3cc(I)ccc23)c1 [Compound 32] | 0.81 |

These compounds were tested on CH22 patient-derived chordoma cell line (assay: Cell viability assay (alamarBlue, 72 h), CH22). Settings: n = 4, 72 h.
Assay type: cell-based, human
Procedure: as §3, §1

| Structure (SMILES) | IC50 [µM] |
| --- | --- |
| C#Cc1cccc(Nc2ncnc3cc4c(cc23)OCCO4)c1 [Compound 21] | > 100 |
| C#Cc1cccc(Nc2c(C#N)cnc3cc(I)ccc23)c1 [Compound 32] | > 100 |
| C#Cc1ccc(F)c(Nc2ncnc3ccc(I)cc23)c1 [Compound 34] | > 100 |
| C#Cc1cccc(Nc2ccnc3ccc(I)cc23)c1F [Compound 35] | > 100 |
| C#Cc1cc(Nc2ncnc3ccc(I)cc23)ccc1F [Compound 36] | > 100 |

What follows are compounds tested on U-CH1 chordoma cell line (assay: Cell viability assay (alamarBlue, 72 h), U-CH1). Settings: n = 4, 72 h.
Assay type: cell-based, human
How it was run: as §2

| Structure (SMILES) | IC50 [µM] |
| --- | --- |
| C#Cc1cccc(Nc2ncnc3cc4c(cc23)OCCO4)c1 [Compound 21] | 8.8 |
| C#Cc1cccc(Nc2c(C#N)cnc3cc(I)ccc23)c1 [Compound 32] | > 100 |
| C#Cc1ccc(F)c(Nc2ncnc3ccc(I)cc23)c1 [Compound 34] | 27 |
| C#Cc1cccc(Nc2ccnc3ccc(I)cc23)c1F [Compound 35] | 8.9 |
| C#Cc1cc(Nc2ncnc3ccc(I)cc23)ccc1F [Compound 36] | 2.7 |

The compounds below were run on U-CH7 patient-derived chordoma cell line (assay: Cell viability assay (alamarBlue, 72 h), U-CH7). Settings: n = 4, 72 h.
Assay type: cell-based, human
Procedure: as §3, §1

| Structure (SMILES) | IC50 [µM] |
| --- | --- |
| C#Cc1cccc(Nc2ncnc3cc4c(cc23)OCCO4)c1 [Compound 21] | > 100 |
| C#Cc1cccc(Nc2c(C#N)cnc3cc(I)ccc23)c1 [Compound 32] | > 100 |
| C#Cc1ccc(F)c(Nc2ncnc3ccc(I)cc23)c1 [Compound 34] | > 100 |
| C#Cc1cccc(Nc2ccnc3ccc(I)cc23)c1F [Compound 35] | > 100 |
| C#Cc1cc(Nc2ncnc3ccc(I)cc23)ccc1F [Compound 36] | > 100 |

These compounds were tested on UM-Chor1 patient-derived chordoma cell line (assay: Cell viability assay (alamarBlue, 72 h), UM-Chor1). Settings: n = 4, 72 h.
Assay type: cell-based, human
Procedure: as §3, §1

| Structure (SMILES) | IC50 [µM] |
| --- | --- |
| C#Cc1cccc(Nc2ncnc3cc4c(cc23)OCCO4)c1 [Compound 21] | 64 |
| C#Cc1cccc(Nc2c(C#N)cnc3cc(I)ccc23)c1 [Compound 32] | > 100 |
| C#Cc1ccc(F)c(Nc2ncnc3ccc(I)cc23)c1 [Compound 34] | > 100 |
| C#Cc1cccc(Nc2ccnc3ccc(I)cc23)c1F [Compound 35] | > 100 |
| C#Cc1cc(Nc2ncnc3ccc(I)cc23)ccc1F [Compound 36] | > 100 |
